# Source: patent US7923429B2, “Treatment for CD5+ B cell lymphoma” (3M Innovative Properties Company, priority 2003, dated 2011)
# Legend:
# CLL cells [1] = assay: Costimulatory molecule expression by activated CLL cells (flow cytometry); type: cell-based, human
# Method: Blood samples: Heparinized blood (30-40 mL) was collected from consenting CLL patients (diagnosed by a persistent elevation of CD19^+CD5^+ IgM^lo lymphocytes (Rozman and Montserrat, New Engl. J. Med. 1995; 333:1052-1057)). All patients were untreated at the time of analysis. Protocols were approved by the appropriate Institutional Review Board.
# Cell purification: CLL and T cells were isolated from fresh blood by negative selection (RosetteSep, StemCell Technologies, Vancouver, BC) as described by Gitelson et al. (Gitelson et al., Clin. Cancer Res. 2003; 99:1656-1665).
# Activation of CLL cells: Purified CLL cells (1.5×10^6 cells/mL) were cultured in serum-free AIM-V medium plus 2-mercaptoethanol (2-ME, 5×10^−5 M) (Sigma Chemical Co.) in 6- or 24-well plates (Becton-Dickinson Labware, Franklin Lake, N.J.) for 3-4 days at 37° C. in 5% CO2. CLL cells were activated by adding the Negative Control compound (1 μg/mL), IRM1 (1 μg/mL), IL-2 (5000 U/mL), PDB (100 ng/mL), or bryostatin ([…]), as appropriate.
# Flow cytometry: Cell staining was performed as described by Gitelson et al. (Gitelson et al., Clin. Cancer Res. 2003; 99:1656-1665).
# CLL cells from the indicated number of patients were cultured in IRM1 (1 μg/mL) for 3-4 days, and then assayed for expression of the costimulatory molecules indicated on the x-axis (at an intensity greater than the first decade of log fluorescence) of FIG. 1A. The percentage of cells that expressed each costimulatory molecule and the mean fluorescence intensity (MFI) of expression were measured by flow cytometry. The “fold-increase” was then calculated from the ratio of these measurements to the percentage and MFI of control cells cultured without activating agents. […]
# CLL cells were isolated and cultured alone or with IL-2 (5000 U/mL), IRM1 (1 μg/mL), or both IL-2 and IRM1 for 3-4 days. The expression of CD80, CD86, CD54, and CD83 was then determined by flow cytometry.
# CD80, CD83, CD54, and CD86 expression were then determined by flow cytometry.
# CLL cells [2] = assay: Elimination of CLL cells by autologous T cells in co-culture; type: cell-based, human; conditions: alone or in combination with IL-2 and/or bryostatin; 1:1 CLL:T cells, 5 days
# Method: CLL cells and T cells were isolated from a CLL patient, suspended at concentrations of 10^6 cells/mL and mixed in a 1:1 ratio. The cell mixtures were cultured alone, or in the presence of IL-2, IL-2 and IRM1, bryostatin, bryostatin and IL-2, bryostatin and IRM1, or bryostatin, IL-2, and IRM1. In FIG. 5A, after 5 days, the percentages of CD5^+ CD19^+ tumor cells (indicated by the numbers in the right upper quadrants of the dot-plots) and CD5^+ CD19^− T cells were determined by flow cytometry. In FIG. 5B, these percentages and the total numbers of viable cells (determined by manual counting in a hemocytometer) were used to calculate the remaining absolute numbers of CLL cells in the cultures.
# [3] = system: T cells from CLL patients; assay: Mixed lymphocyte response: T cell proliferation stimulated by activated, irradiated CLL cells; type: cell-based, human; conditions: CLL cells activated 3-4 days, MLR 5-6 days, alamar blue
# From the text: Mixed Lymphocyte Responses (MLRs): T cells were isolated from CLL patients and adjusted to 5×10^5 cells/mL in AIM-V medium. Activated CLL cells were washed at least 4 times to remove residual immunomodulators, irradiated (2500 cGy) and suspended at 5×10^5 cells/mL (or lower concentrations) in AIM-V. Responders and stimulators were then mixed in a 1:1 (vol:vol) ratio and cultured in 96-well round bottom plates (Becton Dickinson Labware, Franklin Lake, N.J.) without additional cytokines or serum. Proliferation was measured 4-6 days later using a colorimetric assay (Gitelson et al., Clin Cancer Res. 2003; 99:1656-1665; and Ahmed et al., J. Immunol. Methods. 1994; 170:211-224).
# CLL cells were purified from individual patients and cultured alone or with IL-2, IRM1, IL-2 and IRM1, PDB, PDB and IL-2, PDB and IRM1, or PDB, IL-2, and IRM1. After 3-4 days, these cells were harvested, washed extensively, irradiated (2500 cGy) and used to stimulate allogenic or autologous T cells from CLL patients (obtained at the same time as the CLL cells and rested in culture until added to the Mixed Lymphocytic Response (MLR) assay) after 5-6 days of culture, alamar blue was added and proliferation was measured in an optical density calorimetric microplate reader at wavelengths of 540 (reduced state) and 595 (oxidized state). […]
# [4] = system: lymphomatous skin deposits associated with chronic lymphocytic leukemia; assay: Topical treatment of lymphomatous skin deposits in a CLL patient; type: in vivo, human; conditions: topical IRM2; count at beginning 36×10^6 cells/mL
# From the text: A person was diagnosed with Rai Stage 0 CLL on the basis of a persistent elevated count of circulating monoclonal CD19^+ CD5^+ IgM^lo lymphocytes, determined by flow cytometry. CD38 was expressed by 45% of circulating CLL cells. The white blood cell counts at the beginning and end of treatment with IRM2 were 36×10^6 cells/mL and 45×10^5 cells/mL, respectively. Other systemic chemotherapy, steroids, or radiation had not been administered previously.
# Additionally, the patient reported having recurrent nodular, erythematous lesions on their hands and arms for approximately eight years. The lesions were usually removed by treatment with liquid nitrogen. At the time they were diagnosed with CLL, they had several such lesions over their upper back (FIG. 8A) and arms. One lesion was biopsied and found to contain a diffuse atypical lymphoid dermal infiltrate consisting of many small, round lymphocytes, without epidermotropism.
# A 5% cream of IRM2 was applied to the affected area three times per week.
# Administration of 5% IRM2 cream was increased to once per day.
compound,measurement,setting,value
"CCOCc1nc2c(N)nc3c(c2n1CC(C)(C)O)CCCC3.O [IRM1, 4-amino-2-(ethoxymethyl)-α,α-dimethyl-6,7,8,9-tetrahydro-1H-imidazo[4,5-c]quinoline-1-ethanol hydrate]",dependence of ICOS-L expression on signaling,"CLL cells [1]; IL-2 5000 U/mL, IRM1 1 μg/mL",relatively independent
same,expression of 4-1BBL and PDL-1,"CLL cells [1]; IL-2 5000 U/mL, IRM1 1 μg/mL, less than CD80, CD86, CD54",increased somewhat
same,effect on CD80 compared with effect on CD86,CLL cells [1]; IRM1 1 μg/mL,greater
same,"potency as single agent in increasing CD80 and CD86 expression, relative to IL-2","CLL cells [1]; IRM1 1 μg/mL vs IL-2 5000 U/mL, 3-4 days",more potent than IL-2
same,"CD80, CD86, and CD54 expression","CLL cells [1]; IRM1 1 μg/mL, 3-4 days",especially strong effects
same,ICOS-L expression,"CLL cells [1]; IRM1 1 μg/mL, 3-4 days",little effect
same,"MFI of CD80, CD86, CD54, and CD83","CLL cells [1]; IRM1 1 μg/mL, 3-4 days",increased the expression of all four
same,"expression of CD83, 4-1BBL, and PDL-1","CLL cells [1]; IRM1 1 μg/mL, 3-4 days",increased
same,"patients whose CLL cells showed increased expression of CD54, CD80, and CD86","CLL cells [1]; IRM1 1 μg/mL, 3-4 days, n=31",all patients studied
same,"percentage of CLL cells that expressed CD80 and CD86, and MFI of expression","CLL cells [1]; single agent, IL-2 5000 U/mL or IRM1 1 μg/mL, 3-4 days",increased
same,killing of CLL cells by autologous T cells in vitro,CLL cells [2],induced autologous T cells to kill CLL cells
"CCCC(=O)O[C@@H]1[C@@H](C)[C@@]2(O)[C@@H](C=C(CO)C[C@]3(O)C(=O)C(C)=C[C@@H]23)[C@@H]2C(C)(C)[C@]12OC(=O)CCC [PDB, Phorbol dibutyrate, reference compound]",CD54 and ICOS-L expression,"CLL cells [1]; PDB alone, 100 ng/mL",not affected greatly
same,expression of 4-1BBL and PDL-1,"CLL cells [1]; PDB alone, 100 ng/mL",increased
same,CLL cells expressing CD83,"CLL cells [1]; PDB alone, 100 ng/mL, 3-4 days",~90%
same,number of CD80+ and CD86+ CLL cells,"CLL cells [1]; PDB alone, 100 ng/mL, CD86+ more than CD80+",increased
same,ability of activated CLL cells to stimulate T cell proliferation,[3],weak stimulators
"CC(C)Cn1cnc2c(O)nc3ccccc3c21 [Negative Control, 4-hydroxy-1-isobutyl-1H-imidazo[4,5-c]quinoline, reference compound]",effects on CLL cells,"CLL cells [1]; 1 μg/mL, 3-4 days culture",did not have measurable effects
"CC(C)Cn1cnc2c(N)nc3ccccc3c21 [IRM2, 1-(2-methylpropyl)-1H-imidazo[4,5-c]quinolin-4-amine]",white blood cell count at end of treatment,[4],45×10^5 cells/mL
poly (I:C) [reference compound],"costimulatory molecule expression (CD80, CD86) by CLL cells","CLL cells [1]; 100 μg/mL, 48 hours",rarely affected
